Like-named read-outs stand apart in the source and are kept apart here.
Assays:
[1] = rat, in vivo
[2] = human, in vivo
[3] = rat, in vivo; cited from earlier work
[4] = rat, in vivo; cited from earlier work; remark: listed apart in the source
[5] = test system: visceral hyperalgesia; settings: animal models of IBS; cited from earlier work
[6] = dog, in vivo
[7] = in vivo

For “cyclo ( [Asn(β--D-2-deoxy-2-acetamido-Glc)-Asp-Trp-Phe-Dap-Leu]cyclo(2β--5β-)) [nepadutant]”, the Maximum bioavailability [1] is listed as at most 20%, the oral bioavailability [2] is listed as 1% and the oral bioavailability [3] is listed as 1%. The absoption [4] was over 80%, the visceral hyperalgesia [5] was “corrects visceral hyperalgesia” and the Maximum bioavailability [6] was at most 2%. The Maximum bioavailability [7] was at most 2%.
